# Values quoted from earlier work in US20010046961A1, “Method for the treatment of solid tumors by albumin microparticles incorporating paclitaxel” (ACS DOBFAR S.p.A., priority 2000, published 2001).
# System: head and neck cancer
# Conditions: traditional treatment with Paclitaxel, for example head and neck cancer
compound,measurement,value
CC(=O)O[C@H]1C(=O)[C@@]2(C)[C@H]([C@H](OC(=O)c3ccccc3)[C@]3(O)C[C@H](OC(=O)[C@H](O)[C@@H](NC(=O)c4ccccc4)c4ccccc4)C(C)=C1C3(C)C)[C@]1(OC(C)=O)CO[C@@H]1C[C@@H]2O [Paclitaxel],treatment response percentage,40%
